Tests used:
[1] = system: Hep 3B2; assay: Antiproliferative activity against human Hep3B cells after 48 hrs by MTT assay; assay type: functional, cell-based
[2] = system: HeLa; assay: Antiproliferative activity against human HeLa cells after 48 hrs by MTT assay; assay type: functional, cell-based
[3] = system: PBMC; assay: Antiproliferative activity against human PBMC after 48 hrs by MTT assay; assay type: cell-based
[4] = system: MCF7; assay: Antiproliferative activity against human MCF7 cells after 48 hrs by MTT assay; assay type: functional, cell-based; conditions: MCF7, 48 h
[5] = system: NIH3T3; assay: Antiproliferative activity against mouse NIH/3T3 cells after 72 hrs by real-time cell analysis; assay type: cell-based; conditions: NIH3T3, 72 h

Row | SMILES | IC50 [1] [µM] | IC50 [2] [µM] | IC50 [3] [µM] | IC50 [4] [µM] | IC50 [5] [µM]
1 | Cc1nc2ccccc2n1CC(=O)NN | 40.5 | 5.34 | 23 | 24.2 | –
2 | COc1ccc2[nH]c(SCC(=O)Nc3ccc(-c4csc(-c5ccccc5)n4)cc3)nc2c1 | – | – | – | – | 74.6
